From US8729053B2, “Nuclear factor kappa B pathway inhibitor composition and use of same” (The United States of America, as represented by the …, priority 2008, dated 2014)
“Also recorded” adds a separate entry of the source. Counter-ions that a name gives are not always drawn.

Columns and labels:
IKKγ = assay: Immunoblot of phosphorylated IKKγ in HEK293 cells; type: cell-based; settings: compound I pretreatment
Experimental: (§1) To measure endogenous level of several proteins in response to TPA induction and compound I, HEK293 cells were lysed with RIPA buffer (10 mM Tris-HCl pH 7.5, 1 mM EDTA, 0.1% sodium dodecyl sulfate, 0.1% deoxycholate, and protease inhibitor). Whole cell extracts were subjected to immunoblot analysis with the following antibodies: p65 (F-6), p50 (E-10), p52 (C-5), RelB (C-19), IκBα (C-21), PCNA (F-2) were obtained from Santa Cruz Biotechnology (Santa Cruz, Calif.). IKKα, IKKβ, IKKγ, phospho-IκBα, phospho-IKKα/β, phospho-IKKγ, pohospho-Stat3 (Tyr 705 and Ser 727), phospho-p65 (Ser536 and Ser276), phospho-p44/42, phospho-JNKs were purchased from Cell Signaling (Danvers, Mass.), and α-tubulin from Sigma (St. Louis, Mo.). Nuclear and cytoplasmic extracts were prepared with HEK293 cells by NE-PER Nuclear and Cytoplasmic Extraction Reagents (Pierce Biotechnology, Rockford, Ill.) according to the manufacturer's protocol.
To characterize the activity of compound I in targeting events upstream of NFκB, endogenous levels of kinases involved in NFκB activation were examined by immunoblot analysis. The well-established upstream regulators of NFκB activation are IKKα, IKKβ, and IκBα. […] Moreover, the phosphorylation of IκBα was inhibited even at 1.1 μM showing dose-dependent decrease by compound I pretreatment. […]

COX-2 promoter = COX-2 promoter luciferase reporter assay in HEK293 cells; type: cell-based, human; settings: TPA 10 ng/ml 18 hours
Experimental: All expression plasmids were transiently transfected into HEK293 cells in a 96-well plate (0.1 μg/well) by using Effectene transfection reagent (Qiagen, Valencia, Calif.) according to the manufacturer's manual. HEK293 cells were maintained in Dulbecco's modified Eagle medium (Sigma, St. Louis, Mo.) supplemented with 10% fetal bovine serum (Atlanta Biologicals, Lawrenceville, Ga.) and incubated at 37° C. in a 5% CO2 incubator. After 24 hrs incubation, the medium was changed to DMEM with 0.2% FBS, and the transfectants were exposed to various concentrations of compound I and TPA (10 ng/ml). Cells were lysed with passive lysis buffer and the luciferase assay was performed using the Firefly-Luciferase reporter assay system (Promega, Madison, Wis.) and MLX Luminometer (Dynex Technology, Chantilly, Va.).
Three different luciferase reporter genes, AP-1 reporter containing four times TRE consensus originated from GCN4 and SRE reporter purchased from Stratagene (La Jolla, Calif.) respectively are as described previously (Suzukawa et al., Environ. Health Perspect., 2002, 110, 865-70). […]
Inhibition of NFκB transactivation would be expected to result in suppressed expression of genes whose transcription depends on NFκB. Quantitative RT-PCR was used to measure endogenous levels of IL-6 mRNA, transcribed from a gene whose transcription depends on NFκB but not AP-1. […]

JNK = assay: Immunoblot of TPA-induced JNK phosphorylation; type: cell-based; settings: 17.0 μM and 8.5 μM pretreatment
Experimental: as §1
The selectivity of compound I was evaluated by measuring phosphorylation of proteins involved in the AP-1 induction pathway. AP-1 dependent transcription can be activated by MAP Kinases JNK, ERK 1/2 (p44/42). […] At these concentrations compound I, in contrast, completely repressed major regulators in the NFκB activation pathway. JNKs are activated by a variety of environmental stresses responsible for AP-1 activation through c-Jun phosphorylation. […]

RelB/p52 = assay: Nuclear translocation of RelB/p52 and p100 processing, immunoblot; type: cell-based; settings: HEK293
Experimental: as §1
Nuclear translocation of endogenous p65/p50 and RelB/p52 heterodimers were monitored The activation of heterodimers p65/p50 and RelB/p52 occurs by distinct pathways dependent on IKKβ or IKKα catalytic activity. Repression of IKKβ would be expected to influence nuclear translocation of p65/p50 while repression of IKKα would influence processing of p100 to p52. […] However translocation of RelB is only dependent on IKKα for processing of its dimer partner p52 from p100. This processing depends on phosphorylation of p100 by IKKα. The processing of p100 to nuclear p52 was not inhibited by compound I but was proportional to expression levels of p100. Compound I inhibited expression of p100 by an unknown mechanism. […] Instead compound I inhibits IKKβ.

Cc1cc(N)ccc1N=Nc1ccc(S(=O)(=O)CCOS(=O)(=O)O)cc1 [compound I, 2-(4-((4-amino-2-methylphenyl)diazenyl)phenylsulfonyl)ethyl hydrogen sulfate]
Phosphorylation of IKKγ (IKKγ): did not change | COX-2 luciferase activity (COX-2 promoter): dose-dependent inhibition | TPA-induced phosphorylation of endogenous JNK (JNK): no repression | Expression of p100 (RelB/p52): inhibited; also recorded: reduced | Processing of p100 to nuclear p52 (RelB/p52): not inhibited; also recorded: did not inhibit | TPA-induced nuclear translocation of RelB (RelB/p52; compound I pretreatment): remarkably repressed
